Measurements published in patent US20250059164A1, “IRAK DEGRADERS AND USES THEREOF” (Kymera Therapeutics, Inc., priority 2023, published 2025).

How the values were obtained:
[1] = Rodent pharmacokinetics (rat PK); format: in vivo; conditions: po, dosed intravenously or orally by gavage, plasma, read-out: F % (bioavailability)
Method: All studies related to handling, care, and treatment of rats in the study were performed according to the guidelines approved by the Institutional Animal Care and Use Committee (IACUC). All rats had access to food and water ad libitum. Rats were dosed intravenously or orally by gavage. Whole blood was collected from the jugular vein immediately prior to dosing and at 5 (intravenously administered drugs only), 15, and 30 min and 1, 2, 4, 8, and 24 h after drug administration. After sampling, whole blood was centrifuged at 4,000×g for 5 min at 4° C. to obtain plasma.
The letter codes for bioavailability (F %) include: A (≥5%) and B (≤5%).

IRAK4 = target: T1, IRAK4 (Homo sapiens, UniProt Q9NWZ3); test: IRAK4 MSD degradation in OCI-LY10; format: cell-based; conditions: OCI-LY10 cells, 24 hrs, Meso Scale Discovery
T1 construct: endogenous in cells; host or cells: OCI-LY10
T1 sequence (Q9NWZ3 1-460): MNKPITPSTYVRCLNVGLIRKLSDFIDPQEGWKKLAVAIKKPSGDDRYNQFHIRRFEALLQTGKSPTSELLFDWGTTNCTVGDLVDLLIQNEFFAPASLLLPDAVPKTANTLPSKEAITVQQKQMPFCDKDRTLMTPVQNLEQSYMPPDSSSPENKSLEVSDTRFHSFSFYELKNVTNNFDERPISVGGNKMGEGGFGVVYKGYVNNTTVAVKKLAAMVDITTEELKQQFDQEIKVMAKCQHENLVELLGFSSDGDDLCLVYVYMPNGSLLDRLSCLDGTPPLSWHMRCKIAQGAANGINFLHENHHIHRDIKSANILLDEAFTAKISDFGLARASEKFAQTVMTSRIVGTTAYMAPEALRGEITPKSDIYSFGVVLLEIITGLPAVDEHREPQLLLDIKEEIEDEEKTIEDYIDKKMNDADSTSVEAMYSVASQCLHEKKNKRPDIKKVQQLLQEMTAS
How it was run: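 OCI-LY10 cells treated 4 to 24 hours at 37° C. with 8-dose 1:3 series, top 1 to 10 μM. IRAK4 in lysates quantified by MSD sandwich immunoassay (mouse capture, rabbit detection, SULFO-TAG anti-rabbit). DC50 from three-parameter logistic fit.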

CN(C[C@H]1CC[C@H](n2cc(NC(=O)c3cnn4ccc(N5C[C@H]6C[C@@H]5CO6)nc34)c(C(F)F)n2)CC1)[C@H]1CCN(c2cccc3c2n(C)c(=O)n3C2CCC(=O)NC2=O)C[C@H]1F (single isomer, unassigned) [I-27]
bioavailability [1]: ≤ 5% | DC50 (IRAK4): < 10 nM

CN(C[C@H]1CC[C@H](n2cc(NC(=O)c3cnn4ccc(N5C[C@H]6C[C@@H]5CO6)nc34)c(C(F)F)n2)CC1)[C@H]1CCN(c2cccc3c2n(C)c(=O)n3C2CCC(=O)NC2=O)C[C@@H]1F (single isomer, unassigned) [I-28]
bioavailability [1]: ≥ 5% | DC50 (IRAK4): < 10 nM

O=C1CCC(c2ccc(N3CC(N4CCN([C@H]5CC[C@H](n6cc(NC(=O)c7cnn8ccc(N9C[C@H]%10C[C@@H]9CO%10)nc78)c(C(F)F)n6)CC5)CC4)C3)cc2Cl)C(=O)N1 (single isomer, unassigned) [I-46]
bioavailability [1]: ≥ 5% | DC50 (IRAK4): < 10 nM

Cn1c(=O)n(C2CCC(=O)NC2=O)c2cccc([C@@H]3CCN(C[C@H]4CC[C@H](c5nc6cc(C(C)(C)O)c(NC(=O)c7cccc(C(F)(F)F)n7)cc6s5)CC4)C[C@H]3F)c21 (single isomer, unassigned) [I-102]
bioavailability [1]: ≥ 5% | DC50 (IRAK4): < 10 nM

CN(C[C@H]1CC[C@H](c2nc3cc(C(C)(C)O)c(NC(=O)c4cccc(C(F)(F)F)n4)cc3s2)CC1)[C@@H]1CCN(c2cccc3c2n(C)c(=O)n3C2CCC(=O)NC2=O)C[C@@H]1F (single isomer, unassigned) [I-104]
bioavailability [1]: ≥ 5% | DC50 (IRAK4): < 10 nM

COc1cc2nn([C@H]3CC[C@H](CN4CC[C@H](c5cccc6c5n(C)c(=O)n6C5CCC(=O)NC5=O)C(F)(F)C4)CC3)cc2cc1NC(=O)c1cncc(C#N)c1 (single isomer, unassigned) [I-106]
bioavailability [1]: ≤ 5% | DC50 (IRAK4): < 10 nM

Cn1c(=O)n(C2CCC(=O)NC2=O)c2cccc([C@@H]3CCN(C[C@H]4CC[C@H](n5cc6cc(NC(=O)c7cncc(C(F)(F)F)n7)ccc6n5)CC4)C[C@H]3F)c21 (single isomer, unassigned) [I-112]
bioavailability [1]: ≤ 5% | DC50 (IRAK4): < 10 nM

COc1cc2nc([C@H]3CC[C@H](CN4CC[C@H](c5cccc6c5n(C)c(=O)n6C5CCC(=O)NC5=O)C(F)(F)C4)CC3)sc2cc1NC(=O)c1cncc(C#N)c1 (single isomer, unassigned) [I-140]
bioavailability [1]: ≤ 5% | DC50 (IRAK4): > 200 nM

CN(C[C@H]1CC[C@H](c2nc3cc(C(C)(C)O)c(NC(=O)c4cncc(C(F)(F)F)c4)cc3s2)CC1)[C@@H]1CCN(c2cccc3c2n(C)c(=O)n3C2CCC(=O)NC2=O)C[C@H]1F (single isomer, unassigned) [I-159]
bioavailability [1]: ≥ 5% | DC50 (IRAK4): 10 to 100 nM

CN(C[C@H]1CC[C@H](c2nc3cc(C(C)(C)O)c(NC(=O)c4cncc(C(F)(F)F)c4)cc3s2)CC1)[C@@H]1CCN(c2cccc3c2n(C)c(=O)n3C2CCC(=O)NC2=O)C[C@@H]1F (single isomer, unassigned) [I-161]
bioavailability [1]: ≥ 5% | DC50 (IRAK4): < 10 nM

CN(C[C@H]1CC[C@H](c2nc3cc(C(C)(C)O)c(NC(=O)c4cncc(C(F)(F)F)c4)cc3s2)CC1)[C@H]1CCN(c2cccc3c2n(C)c(=O)n3C2CCC(=O)NC2=O)C[C@H]1F (single isomer, unassigned) [I-162]
bioavailability [1]: ≥ 5% | DC50 (IRAK4): < 10 nM

Cn1c(=O)n(C2CCC(=O)NC2=O)c2cccc([C@H]3CCN(C[C@H]4CC[C@H](n5cc6cc(NC(=O)c7cncc(C(F)(F)F)n7)ccc6n5)CC4)CC3(F)F)c21 (single isomer, unassigned) [I-180]
bioavailability [1]: ≥ 5% | DC50 (IRAK4): < 10 nM

CN(C[C@H]1CC[C@H](c2nc3cc(C(C)(C)O)c(NC(=O)c4cccc(C(F)(F)F)c4)cc3s2)CC1)[C@@H]1CCN(c2cccc3c2n(C)c(=O)n3C2CCC(=O)NC2=O)C[C@@H]1F (single isomer, unassigned) [I-192]
bioavailability [1]: ≥ 5% | DC50 (IRAK4): < 10 nM

CN(C[C@H]1CC[C@H](c2nc3cc(C(C)(C)O)c(NC(=O)c4cccc(C(F)(F)F)c4)cc3s2)CC1)[C@H]1CCN(c2cccc3c2n(C)c(=O)n3C2CCC(=O)NC2=O)C[C@H]1F (single isomer, unassigned) [I-199]
bioavailability [1]: ≥ 5% | DC50 (IRAK4): 10 to 100 nM

Cn1c(=O)n(C2CCC(=O)NC2=O)c2cccc([C@H]3CCN(C[C@H]4CC[C@H](n5cc6cc(NC(=O)c7cncc(C(F)(F)F)n7)ncc6n5)CC4)CC3(F)F)c21 (single isomer, unassigned) [I-205]
bioavailability [1]: ≤ 5% | DC50 (IRAK4): < 10 nM

Cn1c(=O)n(C2CCC(=O)NC2=O)c2cccc([C@@H]3CCN(C[C@H]4CC[C@H](n5cc6cc(NC(=O)c7cncc(C(F)(F)F)n7)ncc6n5)CC4)CC3(F)F)c21 (single isomer, unassigned) [I-206]
bioavailability [1]: ≥ 5% | DC50 (IRAK4): 10 to 100 nM

Cn1c(=O)n([C@@H]2CCC(=O)NC2=O)c2cccc([C@@H]3CCN(C[C@H]4CC[C@H](n5cc6cc(NC(=O)c7cncc(C(F)(F)F)n7)ccc6n5)CC4)C[C@H]3F)c21 (single isomer, unassigned) [I-208]
bioavailability [1]: ≤ 5% | DC50 (IRAK4): < 10 nM

Cn1c(=O)n([C@H]2CCC(=O)NC2=O)c2cccc([C@@H]3CCN(C[C@H]4CC[C@H](n5cc6cc(NC(=O)c7cncc(C(F)(F)F)n7)ccc6n5)CC4)C[C@H]3F)c21 (single isomer, unassigned) [I-209]
bioavailability [1]: ≤ 5% | DC50 (IRAK4): < 10 nM

CN(C[C@H]1CC[C@H](c2cn3cc(NC(=O)c4cncc(C(F)(F)F)n4)ccc3n2)CC1)[C@@H]1CCN(c2cccc3c2n(C)c(=O)n3C2CCC(=O)NC2=O)C[C@@H]1F (single isomer, unassigned) [I-213]
bioavailability [1]: ≤ 5% | DC50 (IRAK4): < 10 nM

Cn1nc(C2CCC(=O)NC2=O)c2cccc([C@@H]3CCN(C[C@H]4CC[C@H](n5cc6cc(NC(=O)c7cncc(C#N)c7)c(C(C)(C)O)cc6n5)CC4)CC3(F)F)c21 (single isomer, unassigned) [I-222]
bioavailability [1]: ≥ 5% | DC50 (IRAK4): < 10 nM

Cn1nc(C2CCC(=O)NC2=O)c2cccc([C@H]3CCN(C[C@H]4CC[C@H](n5cc6cc(NC(=O)c7cncc(C#N)c7)c(C(C)(C)O)cc6n5)CC4)CC3(F)F)c21 (single isomer, unassigned) [I-223]
bioavailability [1]: ≤ 5% | DC50 (IRAK4): < 10 nM

Cn1c(=O)n(C2CCC(=O)NC2=O)c2ccc(F)c([C@@H]3CCN(C[C@H]4CC[C@H](n5cc6cc(NC(=O)c7cncc(C#N)c7)c(C(C)(C)O)cc6n5)CC4)CC3(F)F)c21 (single isomer, unassigned) [I-226]
bioavailability [1]: ≤ 5% | DC50 (IRAK4): < 10 nM

Cn1c(=O)n(C2CCC(=O)NC2=O)c2cccc([C@@H]3CCN(C[C@H]4CC[C@H](c5nc6cc(C(C)(C)O)c(NC(=O)c7cncc(C#N)c7)cc6s5)CC4)C[C@H]3F)c21 (single isomer, unassigned) [I-229]
bioavailability [1]: ≤ 5% | DC50 (IRAK4): < 10 nM

CN(C[C@H]1CC[C@H](c2nc3cc(C(C)(C)O)c(NC(=O)c4cccc(C(F)(F)F)n4)cc3s2)CC1)[C@@H]1CCN(c2cccc3c2n(C)c(=O)n3C2CCC(=O)NC2=O)C[C@H]1F (single isomer, unassigned) [I-238]
bioavailability [1]: ≥ 5% | DC50 (IRAK4): < 10 nM

COc1cc2nn([C@H]3CC[C@H](CN4CC[C@@H](c5cccc6c5n(C)c(=O)n6C5CCC(=O)NC5=O)C(F)(F)C4)CC3)cc2cc1NC(=O)c1cncc(C#N)c1 (single isomer, unassigned) [I-240]
bioavailability [1]: ≤ 5% | DC50 (IRAK4): < 10 nM
